Like-named read-outs stand apart in the source and are kept apart here.
Tested on: erythrocytic stages of P. falciparum NF54
Assay: Plasmodium falciparum in vitro assay, [3H] hypoxanthine incorporation
Type: cell-based
Conditions: P. falciparum NF54 in human red blood cells, 48 h + 24 h incubation
Description: In Vitro Antimalarial Activity: Plasmodium falciparum In Vitro Assay In vitro activity against erythrocytic stages of P. falciparum in human red blood cells is determined using a [^3H] hypoxanthine incorporation assay. […] Thereafter, the parasite cultures incubated in screening medium containing washed human red blood cells at 2.5% hematocrit (0.3% parasitemia) are added to the serially diluted compounds and incubated in a humidifying atmosphere at 37° C., 4% CO2, 3% O2, and 93% N2. After 48 h, [^3H] hypoxanthine (0.5 μCi) is added to each well of a plate. The plates are incubated for a further 24 h under the same conditions then harvested with a Betaplate cell harvester (Wallac) and washed with distilled water. The dried filters are inserted into a plastic foil with 10 mL of scintillation fluid, and counted in a Betaplate liquid scintillation counter. IC50 values are calculated from sigmoidal inhibition curves using Microsoft Excel.

[1] = Plasmodium falciparum, Erythrocyte, 72 h, screening medium with Albumax (5 g/L), read-out: IC50 on NF54 (with Albumax)
[2] = Plasmodium falciparum, Erythrocyte, 72 h, screening medium with human serum (50% final concentration), read-out: IC50 on NF54 (with 50% Serum)

| Compound | IC50 [1] [nM] | IC50 [2] [nM] | IC50 (screening medium with Albumax (5 g/L), read-out: IC50 on NF54 (with Albumax)) [nM] | IC50 (screening medium with human serum (50% final concentration), read-out: IC50 on NF54 (with 50% Serum)) [nM] |
| --- | --- | --- | --- | --- |
| CC(=O)N1CCN(c2ccc(CN(C(=O)C=Cc3ccccc3)[C@@H](Cc3ccccc3)C(=O)N3CCN(Cc4ccc(N(C)C)cc4)CC3)cc2)CC1 [Example 66, (S)-N-[4-(4-Acetyl-piperazin-1-yl)benzyl]-N-{1-(4-(4-(dimethylamino)benzyl)piperazin-1-yl)-1-oxo-3-phenylpropan-2-yl}cinnamamide] | 24.6 | 113 |  |  |
| CC(=O)N1CCN(c2ccc(CN(C(=O)C=Cc3ccc(C(F)(F)F)cc3)[C@@H](Cc3ccccc3)C(=O)N3CCN(Cc4ccc([N+](=O)[O-])cc4)CC3)cc2)CC1 [Example 64, (S)-N-[4-(4-Acetyl-piperazin-1-yl)-benzyl]-N-{1-benzyl-2-[4-(4-nitro-benzyl)-piperazin-1-yl]-2-oxo-ethyl}-3-(4-trifluoromethyl-phenyl)-acrylamide] | 3.5 | 43 |  |  |
| CC(=O)N1CCN(c2ccc(CN(C(=O)C=Cc3ccc(S(C)(=O)=O)cc3)[C@@H](Cc3ccccc3)C(=O)N3CCN(Cc4ccc(C#N)cc4)CC3)cc2)CC1 [Example 26, (S)-N-[4-(4-Acetyl-piperazin-1-yl)-benzyl]-N-{1-benzyl-2-[4-(4-cyano-benzyl)-piperazin-1-yl]-2-oxo-ethyl}-3-(4-methanesulfonyl-phenyl)-acrylamide] | 18 | 33 |  |  |
| CC(=O)N1CCN(c2ccc(CN(C(=O)C=Cc3ccc(C(F)(F)F)cc3)[C@@H](Cc3ccccc3)C(=O)N3CCN(Cc4ccc(N(C)C)cc4)CC3)cc2)CC1 [Example 11, (S)-N-[4-(4-Acetyl-piperazin-1-yl)-benzyl]-N-{1-benzyl-2-[4-(4-dimethylamino-benzyl)-piperazin-1-yl]-2-oxo-ethyl}-3-(4-trifluoromethyl-phenyl)-acrylamide] | 4 | 21 |  |  |
| CC(=O)Nc1ccc(C=CC(=O)N(Cc2ccc(N3CCN(C(C)=O)CC3)cc2)[C@@H](Cc2ccccc2)C(=O)N2CCN(Cc3ccc(N(C)C)cc3)CC2)cc1 [Example 17, (S)-3-(4-Acetylamino-phenyl)-N-[4-(4-acetyl-perazin-1-yl)-benzyl]-N-{1-benzyl-2-[4-(4-dimethylamino-benzyl)-piperazin-1-yl]-2-oxo-ethyl}-acrylamide] |  |  | 4.3 | 39 |

More lines, in order of falling IC50 [1], values ahead:

| IC50 [1] [nM] | IC50 [2] [nM] | Compound | IC50 (screening medium with Albumax (5 g/L), read-out: IC50 on NF54 (with Albumax)) [nM] | IC50 (screening medium with human serum (50% final concentration), read-out: IC50 on NF54 (with 50% Serum)) [nM] |
| --- | --- | --- | --- | --- |
| 18 | 62 | CC(=O)N1CCN(c2ccc(CN(C(=O)C=Cc3ccc(C#N)cc3)[C@@H](Cc3ccccc3)C(=O)N3CCN(Cc4ccc(N(C)C)cc4)CC3)cc2)CC1 [Example 71, (S)-N-[4-(4-Acetyl-piperazin-1-yl)benzyl]-3-(4-cyanophenyl)-N-{1-(4-(4-(dimethylamino)benzyl)piperazin-1-yl)-1-oxo-3-phenylpropan-2-yl}acrylamide] |  |  |
| 10 | 91 | CC(=O)N1CCN(c2ccc(CN(C(=O)C=Cc3ccc(F)cc3)[C@@H](Cc3ccccc3)C(=O)N3CCN(Cc4ccc(N(C)C)cc4)CC3)cc2)CC1 [Example 72, (S)-N-[4-(4-Acetyl-piperazin-1-yl)benzyl]-N-{1-(4-(4-(dimethylamino)benzyl)piperazin-1-yl)-1-oxo-3-phenylpropan-2-yl}-3-(4-fluorophenyl)acrylamide] |  |  |
| 3.2 | 17.8 | COc1ccc(CN2CCN(C(=O)[C@H](Cc3ccccc3)N(Cc3ccc(N4CCN(C(C)=O)CC4)cc3)C(=O)C=Cc3ccc(C(F)(F)F)cc3)CC2)cc1 [Example 63, (S)-N-[4-(4-Acetyl-piperazin-1-yl)-benzyl]-N-{1-benzyl-2-[4-(4-methoxy-benzyl)-piperazin-1-yl]-2-oxo-ethyl}-3-(4-trifluoromethyl-phenyl)-acrylamide] |  |  |
| 3.2 | 28 | CC(=O)Nc1ccc(C=CC(=O)N(Cc2ccc(N3CCN(C(C)=O)CC3)cc2)[C@@H](Cc2ccccc2)C(=O)N2CCN(Cc3ccc(Cl)cc3)CC2)cc1 [Example 37, (S)-3-(4-Acetylamino-phenyl)-N-[4-(4-acetyl-piperazin-1-yl)-benzyl]-N-{1-benzyl-2-[4-(4-chloro-benzyl)-piperazin-1-yl]-2-oxo-ethyl}-acrylamide] |  |  |
